The text below walks through data of ChEMBL document CHEMBL1201862, “PubChem BioAssay data set” (2004).

Some targets named below: Cytochrome P450 2D6 (Homo sapiens, UniProt P10635); Cytochrome P450 2C9 (Homo sapiens, UniProt P11712); Cytochrome P450 3A4 (Homo sapiens, UniProt P08684).
The target of a further assay is T1, Cytochrome P450 1A2 (Homo sapiens, UniProt P05177).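 Also: PubChem cytochrome P450 panel assay, CYP1A2 panel member.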
T1 sequence (P05177 whole entry): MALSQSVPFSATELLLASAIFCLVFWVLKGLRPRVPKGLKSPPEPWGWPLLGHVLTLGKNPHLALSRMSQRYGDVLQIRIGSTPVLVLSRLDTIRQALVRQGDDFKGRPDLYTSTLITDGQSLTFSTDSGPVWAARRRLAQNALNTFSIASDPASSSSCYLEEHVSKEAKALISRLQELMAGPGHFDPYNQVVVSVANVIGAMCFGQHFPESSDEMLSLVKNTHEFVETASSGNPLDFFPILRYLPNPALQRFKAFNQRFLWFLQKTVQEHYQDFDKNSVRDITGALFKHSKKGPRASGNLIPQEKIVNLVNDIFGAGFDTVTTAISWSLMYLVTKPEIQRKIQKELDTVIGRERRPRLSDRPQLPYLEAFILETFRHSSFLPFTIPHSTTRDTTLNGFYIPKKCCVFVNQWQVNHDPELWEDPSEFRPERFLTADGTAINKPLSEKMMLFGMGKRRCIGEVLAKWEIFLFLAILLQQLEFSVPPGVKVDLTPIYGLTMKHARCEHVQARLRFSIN

A further assay deals with Cytochrome P450 2C19 (Homo sapiens, UniProt P33261). In words: Cytochrome panel assay with activity outcomes. Panel member name: p450-cyp2c19 Compounds with AC50 equal or less than 10 uM are considered active. Conditions: read-out: AC50. The assay is classed as functional.
Chain of Cytochrome P450 2C19 (P33261 whole entry): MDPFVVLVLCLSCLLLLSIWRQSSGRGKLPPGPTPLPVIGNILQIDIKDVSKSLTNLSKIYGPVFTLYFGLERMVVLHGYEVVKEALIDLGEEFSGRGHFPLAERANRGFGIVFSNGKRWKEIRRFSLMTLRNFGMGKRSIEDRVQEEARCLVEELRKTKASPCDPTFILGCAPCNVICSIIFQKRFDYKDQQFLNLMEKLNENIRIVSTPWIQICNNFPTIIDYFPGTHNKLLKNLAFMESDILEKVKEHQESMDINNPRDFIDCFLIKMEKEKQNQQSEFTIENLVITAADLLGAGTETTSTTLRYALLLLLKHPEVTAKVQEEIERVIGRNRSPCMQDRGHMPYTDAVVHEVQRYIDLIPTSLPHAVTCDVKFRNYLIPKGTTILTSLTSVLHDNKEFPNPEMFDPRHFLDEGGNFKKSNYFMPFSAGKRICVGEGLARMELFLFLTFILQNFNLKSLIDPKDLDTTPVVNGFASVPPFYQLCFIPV

Chain of Cytochrome P450 2C9 (P11712 whole entry): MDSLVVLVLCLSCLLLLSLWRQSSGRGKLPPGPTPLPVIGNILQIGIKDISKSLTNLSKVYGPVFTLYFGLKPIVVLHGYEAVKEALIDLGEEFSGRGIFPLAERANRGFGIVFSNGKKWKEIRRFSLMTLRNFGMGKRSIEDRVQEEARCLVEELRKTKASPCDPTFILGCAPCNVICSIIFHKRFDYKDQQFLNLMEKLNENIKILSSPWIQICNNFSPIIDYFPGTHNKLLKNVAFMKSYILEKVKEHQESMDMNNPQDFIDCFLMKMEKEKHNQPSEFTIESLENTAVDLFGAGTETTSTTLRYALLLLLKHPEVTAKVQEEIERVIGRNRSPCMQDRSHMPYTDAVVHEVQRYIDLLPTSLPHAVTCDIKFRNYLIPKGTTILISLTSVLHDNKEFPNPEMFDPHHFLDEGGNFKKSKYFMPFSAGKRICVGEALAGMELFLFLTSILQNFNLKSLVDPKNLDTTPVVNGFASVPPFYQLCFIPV
Chain of Cytochrome P450 2D6 (P10635 whole entry): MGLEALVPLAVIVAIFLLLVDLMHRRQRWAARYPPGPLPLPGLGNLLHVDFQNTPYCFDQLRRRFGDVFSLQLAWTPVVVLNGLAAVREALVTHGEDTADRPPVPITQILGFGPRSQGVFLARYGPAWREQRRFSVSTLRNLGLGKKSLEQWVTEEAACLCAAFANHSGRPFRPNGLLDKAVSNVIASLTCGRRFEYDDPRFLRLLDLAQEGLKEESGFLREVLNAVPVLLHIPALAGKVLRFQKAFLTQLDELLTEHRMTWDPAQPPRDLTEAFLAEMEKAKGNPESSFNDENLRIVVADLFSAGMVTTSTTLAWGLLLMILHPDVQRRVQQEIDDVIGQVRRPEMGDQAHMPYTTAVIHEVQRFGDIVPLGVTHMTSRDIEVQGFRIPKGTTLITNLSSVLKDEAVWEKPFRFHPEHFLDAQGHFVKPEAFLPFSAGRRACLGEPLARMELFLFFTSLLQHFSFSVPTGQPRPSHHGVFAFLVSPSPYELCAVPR
Chain of Cytochrome P450 3A4 (P08684 whole entry): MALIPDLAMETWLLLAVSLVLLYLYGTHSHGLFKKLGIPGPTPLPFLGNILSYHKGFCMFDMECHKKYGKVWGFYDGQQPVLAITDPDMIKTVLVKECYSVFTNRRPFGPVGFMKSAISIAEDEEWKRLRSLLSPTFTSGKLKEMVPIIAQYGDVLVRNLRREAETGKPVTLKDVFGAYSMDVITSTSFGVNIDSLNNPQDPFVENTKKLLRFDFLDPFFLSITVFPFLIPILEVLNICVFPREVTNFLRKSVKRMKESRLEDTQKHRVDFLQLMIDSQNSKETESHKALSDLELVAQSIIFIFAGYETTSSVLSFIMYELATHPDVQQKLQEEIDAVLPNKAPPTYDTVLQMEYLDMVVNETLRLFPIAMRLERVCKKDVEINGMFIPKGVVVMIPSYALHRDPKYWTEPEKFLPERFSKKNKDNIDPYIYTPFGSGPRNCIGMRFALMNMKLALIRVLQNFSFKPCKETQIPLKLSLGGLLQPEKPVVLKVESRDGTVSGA

With `CC(C)Cn1cnc2c(SCc3ccc(Cl)cc3Cl)nc(N)nc21`, the values for the AC50 on Cytochrome P450 2D6, at Cytochrome P450 2C9 and at Cytochrome P450 1A2 were 7.94 µM (inconclusive), 7.94 µM (inconclusive) and 1.26 µM (inconclusive), respectively.
Take `CCOc1nnc(C)c2c(C)n(-c3ccc(Cl)cc3)nc12`: the values for the concentration at half-maximal activity (AC50) on Cytochrome P450 2C19, on Cytochrome P450 2D6 and on Cytochrome P450 2C9 were 31.6 µM (inconclusive), 25.1 µM (inconclusive) and 25.1 µM (inconclusive), respectively.
On to `C=CCn1cc(Cl)c(=O)n(CC=C)c1=O`, for which the concentration at half-maximal activity (AC50) on Cytochrome P450 2D6 is 0.562 µM (inconclusive); at Cytochrome P450 3A4, 25.1 µM (inconclusive); at Cytochrome P450 1A2, 14.1 µM (inconclusive).
For the compound `COc1ccc(-n2c(=O)c(-c3ccc(Cl)cc3)nc3cnc(N(C)C)nc32)cc1`, the AC50 at Cytochrome P450 2D6 is 2.51 µM (inconclusive); at Cytochrome P450 1A2, 10 µM (inconclusive).
Regarding `Cc1c(/N=C/c2ccco2)n(Cc2ccccc2)c2ccccc12`, the AC50 is 2.82 µM (inconclusive) on Cytochrome P450 2C19 and 4.47 µM (inconclusive) on Cytochrome P450 2D6.
As for `C#C[C@@]1(O)CC[C@@H]2[C@@H]3CCC4=C(CCC(=O)C4)[C@H]3CC[C@]21C`, the half-maximal activity concentration (AC50) at Cytochrome P450 2D6 is 15.8 µM (inconclusive); on Cytochrome P450 1A2, 12.6 µM (inconclusive).
`c1cnc2ccc(C(c3nnnn3C3CCCC3)N3CCN4CCCC4C3)cc2c1` (centres undefined): the AC50 at Cytochrome P450 2C19 is 25.1 µM (inconclusive); at Cytochrome P450 2D6, 22.4 µM (inconclusive); on Cytochrome P450 3A4, 6.31 µM (inconclusive); at Cytochrome P450 2C9, 14.1 µM (inconclusive).

By AC50 is commonly meant the midpoint of the concentration-response curve, whichever way the signal moves.
